PubChem BioAssay (NCI)
Where “and” joins values, the source holds several entries; their conditions need not be identical. Identical values can stand only once.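 In this assay, cells in 96-well plates receive the compound at five concentrations for 48 hours. Endpoints are linearly interpolated between the surrounding concentrations. Here, GI50 denotes the concentration required for 50% inhibition of growth. TGI marks complete inhibition of growth.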

Tests used:
Test in all cases: growth of human tumour cells (NCI), 48 h
[1] = system: NCI-H23 lung
[2] = system: NCI-H460 lung
[3] = system: NCI-H522 lung
[4] = system: NCI/ADR-RES ovarian
[5] = system: OVCAR-3 ovarian
[6] = system: OVCAR-4 ovarian
[7] = system: OVCAR-5 ovarian
[8] = system: OVCAR-8 ovarian
[9] = system: PC-3 prostate
[10] = system: RPMI-8226 leukemia
[11] = system: RXF 393 renal
[12] = system: SF-268 CNS
[13] = system: SF-295 CNS
[14] = system: SF-539 CNS
[15] = system: SK-MEL-2 melanoma
[16] = system: SK-MEL-28 melanoma
[17] = system: SK-MEL-5 melanoma
[18] = system: SK-OV-3 ovarian
[19] = system: SN12C renal
[20] = system: SNB-19 CNS
[21] = system: SNB-75 CNS
[22] = system: SR leukemia
[23] = system: SW-620 colon
[24] = system: T-47D breast
[25] = system: TK-10 renal
[26] = system: U251 CNS
[27] = system: UACC-257 melanoma
[28] = system: UACC-62 melanoma
[29] = system: UO-31 renal

With `COc1cc2nccc(Oc3ccc(NC(=O)Nc4cc(C)on4)c(Cl)c3)c2cc1OC` the GI50 [1] was 2.97 µM and 3.07 µM, the TGI [1] was greater than 100 µM and the GI50 [2] was 3.41 µM and 4.31 µM. The TGI [2] was greater than 70.4 µM, the GI50 [3] was 3.47 µM and 3.14 µM and the TGI [3] was 32.9 µM and > 10 µM. The GI50 [4] was 3.08 µM and 3.53 µM, the TGI [4] was greater than 100 µM and the GI50 [5] was 4 µM and 7.96 µM. For the same compound, the TGI [5] was 14.4 µM and > 10 µM, the GI50 [6] was 2.34 µM and 4.13 µM and the TGI [6] was greater than 65.2 µM. The GI50 [7] was 4.15 µM and 4.08 µM, the TGI [7] was 42.9 µM and > 10 µM and the GI50 [8] was 3.6 µM and 4.67 µM. The TGI [8] was greater than 100 µM, the GI50 [9] was 4.74 µM and 5.91 µM and the TGI [9] was greater than 100 µM. The GI50 [10] was 9.83 µM and 4.33 µM, the TGI [10] was greater than 55.7 µM and the GI50 [11] was 1.96 µM and 1.79 µM. For the same compound, the TGI [11] was 6.2 µM and 8.18 µM, the GI50 [12] was 2.58 µM and 3.09 µM and the TGI [12] was greater than 55.3 µM. For the same compound, the GI50 [13] was 2.08 µM and 3.08 µM, the TGI [13] was 14 µM and > 10 µM and the GI50 [14] was 1.49 µM and 1.41 µM. The TGI [14] was 4.05 µM and 4.74 µM, the GI50 [15] was 3.56 µM and 3.33 µM and the TGI [15] was 10.4 µM and > 10 µM. The GI50 [16] was 3.76 µM and 4.31 µM, the TGI [16] was 19.3 µM and > 10 µM and the GI50 [17] was 2.04 µM and 2.81 µM. For the same compound, the TGI [17] was 5.69 µM and > 10 µM, the GI50 [18] was 4.16 µM and 3.57 µM and the TGI [18] was 26.5 µM and > 10 µM. The GI50 [19] was 2.13 µM and 2.56 µM, the TGI [19] was greater than 100 µM and the GI50 [20] was 5.12 µM and > 10 µM. The TGI [20] was greater than 100 µM, the GI50 [21] was 1.99 µM and 2.06 µM and the TGI [21] was 6.24 µM and > 10 µM. The GI50 [22] was 2.62 µM and 3.86 µM, the TGI [22] was 34.4 µM and > 10 µM and the GI50 [23] was 3.11 µM and 4.09 µM. The TGI [23] was 18.4 µM and > 10 µM, the GI50 [24] was 2.98 µM and 3.35 µM and the TGI [24] was 23.2 µM and > 10 µM. For the same compound, the GI50 [25] was 3.42 µM and 3.9 µM, the TGI [25] was 13.2 µM and > 10 µM and the GI50 [26] was 4.68 µM and 8.17 µM. The TGI [26] was greater than 100 µM, the GI50 [27] was 3.73 µM and 5.54 µM and the TGI [27] was 33.9 µM and > 10 µM. The GI50 [28] was 2.12 µM and 1.82 µM, the TGI [28] was 16.4 µM and > 10 µM and the GI50 [29] was 1.88 µM and 2.5 µM. The TGI [29] was 5.76 µM and > 10 µM.
